Test results taken from ChEMBL document CHEMBL6083204, “Synthesis of a celastrol derivative as a cancer stem cell inhibitor through regulation of the STAT3 pathway for treatment of ovarian cancer” (RSC Med Chem, 2024).

What was measured:
[1] = Cytotoxicity against human IOSE80 cells assessed as inhibition of cell growth incubated for 72 hrs by MTT assay; assay type: toxicity, cell-based
[2] = test system: A2780; test: Antiproliferative activity against human A2780 cells assessed as inhibition of cell growth incubated for 72 hrs by MTT assay; assay type: functional, cell-based; settings: A2780, 72 h
[3] = test system: SK-OV-3; test: Antiproliferative activity against human SK-OV-3 cells assessed as inhibition of cell growth incubated for 72 hrs by MTT assay; assay type: functional, cell-based; settings: SK-OV-3, 72 h
[4] = test system: OVCAR-3; test: Antiproliferative activity against human OVCAR-3 cells assessed as inhibition of cell growth incubated for 72 hrs by MTT assay; assay type: functional, cell-based; settings: OVCAR-3, 72 h
[5] = Selectivity index, ratio of IC50 for cytotoxicity against human IOSE80 cells to IC50 for cytotoxicity against human SK-OV-3 cells

Compound	IC50 at 72 h [1] [nM]	IC50 [2] [nM]	IC50 [3] [nM]	IC50 [4] [nM]	Ratio IC50 [5]
COc1cccc2c1C(=O)c1c(O)c3c(c(O)c1C2=O)C[C@@](O)(C(=O)CO)C[C@@H]3O[C@H]1C[C@H](N)[C@H](O)[C@H](C)O1 [DOXORUBICIN]	760	4180	1680		
CC1=C(O)C(=O)C=C2C1=CC=C1[C@@]2(C)CC[C@@]2(C)[C@@H]3C[C@](C)(C(=O)O)CC[C@]3(C)CC[C@]12C [CELASTROL]	2380	1990	1270	840	1.87
